Data on seven compounds can be found in PubChem BioAssay AID602331 (Johns Hopkins Ion Channel Center, 2012).

Calls of active or inactive are those of the source.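 The calls were made as follows: active = compound boosting capsaicin-evoked TRPV1 current more than 1.5 times over the capsaicin response; inactive = the rest.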

In the assay the target is Transient receptor potential cation channel subfamily V member 1 (Homo sapiens) (UniProt Q8NER1). Put plainly: capsaicin-evoked TRPV1 current potentiation – QPatch automated patch clamp, HEK293 cells, confirmation (AID 602331). To be noted: +100 mV, at 10 µM, active compounds read high.
Chain of Transient receptor potential cation channel subfamily V member 1 (Homo sapiens) (Q8NER1 whole entry, looked up): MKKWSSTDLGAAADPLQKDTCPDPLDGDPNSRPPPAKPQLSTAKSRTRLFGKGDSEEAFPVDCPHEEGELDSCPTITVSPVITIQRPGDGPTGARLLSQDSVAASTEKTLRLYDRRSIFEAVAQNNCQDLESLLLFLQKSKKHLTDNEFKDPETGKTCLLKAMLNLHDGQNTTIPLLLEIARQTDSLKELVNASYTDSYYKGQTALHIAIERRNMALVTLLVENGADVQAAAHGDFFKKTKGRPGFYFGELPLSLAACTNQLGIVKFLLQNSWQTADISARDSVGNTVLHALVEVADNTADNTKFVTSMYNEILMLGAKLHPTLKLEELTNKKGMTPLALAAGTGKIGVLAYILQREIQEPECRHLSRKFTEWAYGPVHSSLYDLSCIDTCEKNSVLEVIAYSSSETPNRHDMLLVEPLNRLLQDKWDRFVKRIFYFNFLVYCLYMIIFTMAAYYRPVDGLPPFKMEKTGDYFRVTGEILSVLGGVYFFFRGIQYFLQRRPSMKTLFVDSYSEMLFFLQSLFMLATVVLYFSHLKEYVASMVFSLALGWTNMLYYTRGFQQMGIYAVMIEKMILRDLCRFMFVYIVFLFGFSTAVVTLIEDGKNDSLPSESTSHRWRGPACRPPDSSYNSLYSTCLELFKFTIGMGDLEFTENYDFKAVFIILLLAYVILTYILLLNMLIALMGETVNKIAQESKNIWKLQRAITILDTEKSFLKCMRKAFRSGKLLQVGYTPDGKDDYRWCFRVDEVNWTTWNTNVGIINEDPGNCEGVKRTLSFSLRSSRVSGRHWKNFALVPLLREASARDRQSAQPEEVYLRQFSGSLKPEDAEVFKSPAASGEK
Take `CC(=O)Nc1cccc(C(=O)OCC(=O)NCc2cc(C)c(O)c(C)c2)c1`: the fold potentiation was 0.956 (inactive). As for `Cc1csc2c(=O)sc(NC(=O)c3ccc(F)cc3Cl)nc12`, the fold potentiation is 1.08 (inactive).

Take `CC1=C(C)/C(=N\OS(=O)(=O)c2ccc(C)cc2)C=CC1=O`: the fold potentiation is 1.63. On to `O=c1c(/C=N/OCc2ccc(Cl)cc2Cl)c[nH]n1-c1cccc(Cl)n1`, for which the fold potentiation was 0.906 (inactive). On to `O=C(CNc1cccc(S(=O)(=O)N2CCOCC2)c1)Nc1cccc(Br)c1`, for which the fold potentiation is 0.827 (inactive). The value for `O=C(COC(=O)c1ccc2c(c1)C(=O)N(Cc1ccncc1)C2=O)Nc1ccccc1[N+](=O)[O-]` was 3.23; that for `CC(C)C(=O)Nc1ccc(C(=O)CN2C(=O)NC3(CCOc4ccccc43)C2=O)cc1` (configuration not stated) was 0.776 (inactive).
